Assay [1] relates to persian speedwell. As to the kind of experiment: Test Example 5: herbicidal effect by foliage application, plastic box (Table 20, symbol R). Format: in vivo, Persian speedwell (Veronica persica). The settings on record: foliage application, 320 g/ha, three weeks after application. The method in brief: (§1)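 Plants were sown into sterilized diluvial soil under about 1.5 cm cover and kept in a greenhouse at 25° C. to 30° C. Fourteen days on, foliage received an even spray of the diluted emulsion. Herbicidal or crop effect was judged three weeks afterwards.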

In the next assay the test system is green foxtail. As to the kind of experiment: Test Example 4: herbicidal effect by soil treatment (Table 19, symbol G). Type of assay: in vivo, green foxtail (Setaria viridis). The conditions noted are these: amount of applied herbicide 320 g/ha. Summed up:
(§2)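 In this soil treatment, the formulated compound reached the seeds only through the soil: seeds were buried about 1.5 cm deep in sterilized diluvial soil, then the diluted emulsion was sprayed over the surface. After three weeks at 25° C. to 30° C. in a greenhouse, effects were graded on criteria from an earlier test.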

Assay [2] deals with lambsquarters. The assay can be described thus: Test Example 4: herbicidal effect by soil treatment (Table 19, symbol O). Format: in vivo, lambsquarters (Chenopodium album). The conditions noted are these: amount of applied herbicide 320 g/ha. Summed up:
as §2

For a further assay, the system named is Italian ryegrass. The assay can be described thus: Test Example 5: herbicidal effect by foliage application, plastic box (Table 20, symbol K). Format: in vivo, Italian ryegrass (Lolium multiflorum). The conditions noted are these: foliage application, 320 g/ha, three weeks after application. The method in brief: as §1
The subject of assay [3] is velvetleaf. The assay can be described thus: Test Example 4: herbicidal effect by soil treatment (Table 19, symbol M). Type of assay: in vivo, velvetleaf (Abutilon theophrasti). The settings on record: amount of applied herbicide 320 g/ha. The method in brief: as §2
The next assay has as its system chickweed. As to the kind of experiment: Test Example 4: herbicidal effect by soil treatment (Table 19, symbol P). Format: in vivo, common chickweed (Stellaria media). The settings on record: amount of applied herbicide 320 g/ha. Summed up:
as §2

Assay [4] has as its system velvetleaf. As to the kind of experiment: Test Example 5: herbicidal effect by foliage application, plastic box (Table 20, symbol M). Format: in vivo, velvetleaf (Abutilon theophrasti). The conditions noted are these: foliage application, 320 g/ha, three weeks after application. Summed up: as §1
Another assay concerns oval-leafed pondweed. The assay can be described thus: Test Example 1: herbicidal activity, application before weed generation under submerged conditions (Table 16, symbol C). Format: in vivo, oval-leafed pondweed (Monochoria vaginalis). The conditions noted are these: amount of applied herbicide 320 g/ha. Summed up:
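Emulsion formulation, water-diluted to set dose, was put onto the flooded surface (4 cm depth, alluvial soil) the same day weeds were sown and 2.5-leaf rice transplanted. After 3 weeks at 25-30 °C under glass, each species was rated 0 (≤5% kill) to 5 (≥90% kill).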

Assay [5] relates to lambsquarters. As to the kind of experiment: Test Example 5: herbicidal effect by foliage application, plastic box (Table 20, symbol O). Format: in vivo, lambsquarters (Chenopodium album). The conditions noted are these: foliage application, 320 g/ha, three weeks after application. Summed up: as §1
In a further assay the test system is rice flat sedge. As to the kind of experiment: Test Example 3: herbicidal effect by foliage application, Wagner pot (Table 18, symbol E). Type of assay: in vivo, rice flat sedge (Cyperus iria). The conditions noted are these: amount of applied herbicide 320 g/ha. The method in brief:
(§3)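 Plants were sown in alluvial soil held under 0.1–0.5 cm standing water and grown 14 days in a greenhouse at 25–30 °C. An emulsifiable formulation, water-diluted to the set dose, was then sprayed onto the foliage, and effects were scored three weeks later using previously defined criteria.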

The test system of the next assay is Chinese sprangletop. As to the kind of experiment: Test Example 3: herbicidal effect by foliage application, Wagner pot (Table 18, symbol D). Type of assay: in vivo, chinese sprangletop (Leptochloa chinensis). The settings on record: amount of applied herbicide 320 g/ha. The method in brief: as §3
In assay [6] the test system is windgrass. As to the kind of experiment: Test Example 5: herbicidal effect by foliage application, plastic box (Table 20, symbol L). Type of assay: in vivo, windgrass (Apera spica-venti). The conditions noted are these: foliage application, 320 g/ha, three weeks after application. Summed up: as §1
A further assay concerns late watergrass. As to the kind of experiment: Test Example 2: herbicidal activity, application during weed generation under submerged conditions (Table 17, symbol A). Format: in vivo, late watergrass (Echinochloa oryzicola). The conditions noted are these: AAH 320 g/ha; application during weed generation, submerged conditions. Summed up:
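Effect on each weed is rated three weeks post-treatment, using the same scoring criteria as the preceding test. Plants grow from mixed-sown seed in flooded alluvial soil (4 cm water) at 25° C. to 30° C., and are treated at one to two leaves with diluted emulsion dropped onto the water.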

For a further assay, the system named is barnyard grass. The assay can be described thus: Test Example 3: herbicidal effect by foliage application, Wagner pot (Table 18, symbol H). Format: in vivo, barnyard grass (Echinochloa crus-galli). The conditions noted are these: amount of applied herbicide 320 g/ha. The method in brief: as §3
Assay [7] concerns windgrass. As to the kind of experiment: Test Example 4: herbicidal effect by soil treatment (Table 19, symbol L). Format: in vivo, windgrass (Apera spica-venti). The conditions noted are these: amount of applied herbicide 320 g/ha. Summed up: as §2
The next assay has as its system southern crabgrass. The assay can be described thus: Test Example 5: herbicidal effect by foliage application, plastic box (Table 20, symbol F). The conditions noted are these: foliage application, 320 g/ha, three weeks after application. Format: in vivo, southern crabgrass (Digitaria ciliaris). The method in brief:
as §1

Assay [8] relates to persian speedwell. The assay can be described thus: Test Example 4: herbicidal effect by soil treatment (Table 19, symbol R). Type of assay: in vivo, Persian speedwell (Veronica persica). The settings on record: amount of applied herbicide 320 g/ha. Summed up: as §2

This is an account of results in patent publication US20230085307A1, “PYRIDAZINONE COMPOUND AND HERBICIDE” (NISSAN CHEMICAL CORPORATION, priority 2019, published 2023).

On to `CCOc1ccccc1-c1sc2ccc(F)cc2c1-c1c(O)c(CC)nn(C)c1=O` [2-416], for which, in the assay on persian speedwell [1], the “R: persian speedwell, herbicidal effect grade” value was 5 (Herbicidal rate of 90% or more (almost completely withered)). In addition, the “herbicidal effect, G: green foxtail” value with green foxtail is on record as 0 (Herbicidal rate of 5% or less (almost no effect)). Also, the “herbicidal effect, O: lambsquarters” value with lambsquarters [2] is recorded as 0 (Herbicidal rate of 5% or less (almost no effect)). In addition, the “K: Italian ryegrass, herbicidal effect grade” value with Italian ryegrass is 0 (Herbicidal rate of 5% or less (almost no effect)). Also, the “herbicidal effect, M: velvetleaf” value with velvetleaf [3] is 0 (Herbicidal rate of 5% or less (almost no effect)). The “herbicidal effect, P: chickweed” value with chickweed was 2 (Herbicidal rate of 20% or more and less than 40%). The “M: velvetleaf, herbicidal effect grade” value in the assay with velvetleaf [4] is 3 (Herbicidal rate of 40% or more and less than 70%). Also, the “Herbicidal effect, C: oval-leafed pondweed” value in the assay on oval-leafed pondweed was 2 (Herbicidal rate of 20% or more and less than 40%). Further, the “O: lambsquarters, herbicidal effect grade” value in the assay on lambsquarters [5] is 2 (Herbicidal rate of 20% or more and less than 40%). For the same compound, the “herbicidal effect on E: rice flat sedge” value with rice flat sedge is 4 (Herbicidal rate of 70% or more and less than 90%). For the same compound, the “herbicidal effect on D: Chinese sprangletop” value in the assay on Chinese sprangletop was 3 (Herbicidal rate of 40% or more and less than 70%). Further, the “L: windgrass, herbicidal effect grade” value in the assay on windgrass [6] was 0 (Herbicidal rate of 5% or less (almost no effect)). The “herbicidal effect rating, A: late watergrass” value in the assay on late watergrass was 2 (Herbicidal rate of 20% or more and less than 40%). Further, the “herbicidal effect on H: barnyard grass” value in the assay with barnyard grass is reported as 5 (Herbicidal rate of 90% or more (almost completely withered)). The “herbicidal effect, L: windgrass” value with windgrass [7] is 0 (Herbicidal rate of 5% or less (almost no effect)). For the same compound, the “F: southern crabgrass, herbicidal effect grade” value in the assay on southern crabgrass was 1 (Herbicidal rate of 5% or more and less than 20%). Moreover, in the assay on persian speedwell [8], the “herbicidal effect, R: persian speedwell” value is 0 (Herbicidal rate of 5% or less (almost no effect)).
Turning to `CCCC(=O)Oc1c(C)nn(C)c(=O)c1-c1c(-c2ccc(F)cc2)sc2cc(F)ccc12` [3-002], the “R: persian speedwell, herbicidal effect grade” value with persian speedwell [1] is recorded as 5 (Herbicidal rate of 90% or more (almost completely withered)). For the same compound, the “herbicidal effect, G: green foxtail” value in the assay with green foxtail is on record as 0 (Herbicidal rate of 5% or less (almost no effect)). In addition, in the assay on lambsquarters [2], the “herbicidal effect, O: lambsquarters” value was 4 (Herbicidal rate of 70% or more and less than 90%). For the same compound, the “K: Italian ryegrass, herbicidal effect grade” value in the assay with Italian ryegrass is 4 (Herbicidal rate of 70% or more and less than 90%). Further, in the assay on velvetleaf [3], the “herbicidal effect, M: velvetleaf” value is 0 (Herbicidal rate of 5% or less (almost no effect)). In addition, the “herbicidal effect, P: chickweed” value with chickweed is 3 (Herbicidal rate of 40% or more and less than 70%). In the assay on velvetleaf [4], the “M: velvetleaf, herbicidal effect grade” value is recorded as 5 (Herbicidal rate of 90% or more (almost completely withered)). Also, the “Herbicidal effect, C: oval-leafed pondweed” value in the assay with oval-leafed pondweed is 4 (Herbicidal rate of 70% or more and less than 90%). Further, the “O: lambsquarters, herbicidal effect grade” value with lambsquarters [5] is 3 (Herbicidal rate of 40% or more and less than 70%). Besides, the “herbicidal effect on E: rice flat sedge” value with rice flat sedge is 3 (Herbicidal rate of 40% or more and less than 70%). Also, the “herbicidal effect on D: Chinese sprangletop” value in the assay with Chinese sprangletop is reported as 0 (Herbicidal rate of 5% or less (almost no effect)). Moreover, the “L: windgrass, herbicidal effect grade” value with windgrass [6] is 1 (Herbicidal rate of 5% or more and less than 20%). For the same compound, the “herbicidal effect rating, A: late watergrass” value in the assay on late watergrass is 3 (Herbicidal rate of 40% or more and less than 70%). Further, the “herbicidal effect on H: barnyard grass” value in the assay with barnyard grass was 5 (Herbicidal rate of 90% or more (almost completely withered)). Further, in the assay on windgrass [7], the “herbicidal effect, L: windgrass” value is 3 (Herbicidal rate of 40% or more and less than 70%). Moreover, in the assay with southern crabgrass, the “F: southern crabgrass, herbicidal effect grade” value is 4 (Herbicidal rate of 70% or more and less than 90%). The “herbicidal effect, R: persian speedwell” value in the assay on persian speedwell [8] was 5 (Herbicidal rate of 90% or more (almost completely withered)).
